Columns and labels:
[1] = biological target: human GLP1R (hGLP1R) (Homo sapiens, UniProt P43220); assay: Human GLP1R cAMP agonist assay (GloSensor); type: cell-based; conditions: HEK293-SNAP-hGLP1R-GloSensor cells; for Emax: read-out: Emax mean; for EC50: intracellular cAMP, mean n=3 where SEM is given
Description: Compounds 1 to 31 were tested in the following cellular assays that measure the intracellular cAMP concentration, beta-arrestin recruitment and receptor internalization. The cAMP is generated by the activation of GLP1R. The cAMP data obtained is shown in Table 1 (where S.E.M. is included, mean n=3 independent experiments+/−S.E.M). Beta-arrestin is recruited upon activation of GLP1R and the data obtained are shown in Table 2 (mean n=2 independent experiments, +/−S.D). The extent to which the GLP1R is internalized into the cell and away from the plasma membrane following activation is also shown in Table 2 (mean n=2 independent experiments, +/−S.D). EC50 for each assay is defined as the concentration of the compound that leads to half of the maximum response (after baseline correction). Emax is defined as the maximum response observed for the test compound, normalized to the maximum response observed for the endogenous ligand (GLP1(7-36)) to GLP1R.
Human GLP1R cAMP Agonist Assay
The agonist activity of compounds was determined using the GloSensor™ cAMP Assay (Promega Corp.), which measures changes in the intracellular concentration of cAMP after ligand activation of GPCRs. The assay uses a biosensor encoded by pGloSensor™-22F cAMP plasmid (Promega, cat #E2301) with cAMP binding domains fused to a mutant form of Photinus pyralis luciferase. Binding to cAMP causes conformational changes that promote large increases in light output, which can be measured by a luminescence detector. HEK293-SNAP-hGLP1R-GloSensor cells stably overexpressing the human GLP1 receptor (hGLP1R) and pGloSensor™-22F were seeded in white 384-well poly-D-Lysine coated plates (Greiner Bio One, cat #781945) in CO2-independent media (Gibco cat #18045-088 with 1.0% FBS, 2 mM L-glutamine, penicillin and streptomycin) and incubated overnight at 37° C., 5% CO2 with humidity. The assay was started the following morning by adding an equal volume of CO2-independent media containing 4% v/v dilution of the GloSensor substrate (Promega, cat #E1291) to all wells. The cell plate was incubated at rt for 2 h in the dark. The Biomek 7 (Beckman Coulter) instrument was used for the liquid handling steps. To generate duplicate dose response curves, 3-fold serially diluted compounds were added in to the cell assay plate to a final volume of 60 μL with final concentrations ranging from 30 μM through 0.06 μM in CO2-independent media containing 0.1% BSA, 0.5 mM IBMX and 0.4% DMSO. In the same plate and assay buffer as the tested compounds, were EC100 control wells containing GLP1 (7-36) peptide (Bachem, cat #H-6795) at a final concentration of 2 nM and also EC0 control wells containing no peptide. This plate was incubated at rt in the dark for 12 min after adding the compounds to the cells. Luminescence was then measured with an Envision 2104 Multilabel reader with “TRF Light Unit, 337 nm” (PerkinElmer) using the Ultra-Sensitive protocol setting “384-well US luminescence detector” with the 384-well luminescence aperture, 0.1 seconds per well. cAMP activity was calculated as percent of the GLP1 (7-36) EC100 control wells: [(sample signal−mean EC0 signal)/(mean EC100 of GLP1 (7-36) signal−mean EC0 signal)}*100. Curve fitting for EC50 determinations was performed in the Helios module of the software package DAVID. The 4-parameter logistic model, Hill slope was used: y=Ainf+(A0−Ainf)/(1+(x/AC50)^Hill Slope) where y is the functional response; x is the compound concentration; A0 is the minimum value (at 0 dose); Ainf is the maximum value (at infinite dose); AC50 corresponds to the point of inflection (i.e. the point on the sigmoid shaped curve halfway between A0 and Ainf). The EC50 value was represented by the AC50 value calculated from Helios in μM. Emax is the maximal activity detected within the concentration range, derived from the fitted curve. […]

[2] = Pharmacokinetics in C57BL/6 mice (i.v. and oral)
Description: Blood concentration versus time profiles were obtained from 2 groups of 3 male mice. The compound was administered intravenously (i.v.) by bolus injection (5 mL/kg) at a dose of 1 mg/kg in N-methyl-2-pyrrolidone (10%) and 4% bovine serum albumins (BSA) in phosphate-buffered saline (PBS) (90%) or orally administered at a dose of 3 mg/kg (10 mL/kg) as a homogenous suspension of Water (99.4%), Tween 80 (0.1%) and methylcellulose (0.5%). Following compound administration, blood (10 μL/time point) were collected by puncture of the tail vein into ethylenediaminetetraacetic (EDTA)-coated tubes, at 0.083 (i.v. only), 0.25, 0.5, 1, 3, 7, & 24 hours post dose.
Bioanalysis: An aliquot of 10 μL of blood sample and matrix calibration standards were added to a 96-well plate. The samples were extracted using a protein precipitation procedure with addition of 80 μL acetonitrile containing internal standard. The samples were vortexed and centrifuged at 3000 rpm for 5 minutes. A 70 μL aliquot of supernatant was transferred to a clean 96-well plate and a 70 μL of water was added to each well and vortexed. Samples were analyzed and quantified by LC-MS/MS using the conditions outlined below.
• Mass Spectrometer: AP16500+ • Liquid Chromatograph: Agilent 1290 for Compound 3; Shimadzu LC30 AD for Compound 5 • Autosampler (ALS): Agilent 1290 for Compound 3; Shimadzu SIL30AC for Compound 5
• LC Column Acquity BEH C18, 50×2.1 mm, 1.7 μm • Solvent A: • 5:95:0.1 (v:v:v) Acetonitrile:Water:Formic Acid for Compound 3 • 100:0.1 (v:v) Water:Formic acid for Compound 5 • Solvent B: • 50:50:0.1 (v:v:v) Acetonitrile:Methanol:Formic Acid for Compound 3 • 100:0.1 (v:v) Acetonitrile:Formic acid for Compound 5 • Injection Volume [μL]: 1 for Compound 5; 20 for Compound 3 • Column Oven Temp. [° C.]: 50 Compound 3; 40 for Compound 5 • ALS Temp. [° C.]: 5
• Ion Source: TIS • Polarity: Positive • Temperature: 550 • Gas 1: 55 • Gas 2: 55 • Curtain Gas: 20 • Ion Spray Voltage [V]: 5500 for Compound 5; 4500 for Compound 3 • CAD Gas: 9

[3] = cAMP, normalized to GLP1(7-36) maximum response
[4] = male, C57BL/6, mouse, in vivo, iv, 1 mg/kg
[5] = male, C57BL/6, mouse, in vivo, po, 3 mg/kg

human GLP1R (hGLP1R), sequence (P43220 24-463): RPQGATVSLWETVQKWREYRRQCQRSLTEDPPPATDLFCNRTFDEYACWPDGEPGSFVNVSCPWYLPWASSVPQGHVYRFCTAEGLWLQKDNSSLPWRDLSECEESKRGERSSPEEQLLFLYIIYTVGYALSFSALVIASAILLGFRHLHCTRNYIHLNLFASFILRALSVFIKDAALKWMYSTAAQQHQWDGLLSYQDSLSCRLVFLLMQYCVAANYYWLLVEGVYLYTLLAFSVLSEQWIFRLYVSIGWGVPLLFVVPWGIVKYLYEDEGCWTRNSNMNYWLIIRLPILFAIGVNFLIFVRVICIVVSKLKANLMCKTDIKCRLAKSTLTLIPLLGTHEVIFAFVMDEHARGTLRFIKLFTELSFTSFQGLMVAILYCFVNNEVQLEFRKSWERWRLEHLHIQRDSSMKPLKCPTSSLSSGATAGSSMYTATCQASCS

SMILES	Emax [1, 3]	EC50 [1]	other results
Cc1nc(CN2CCC(c3cccc4c3O[C@@](C)(c3ccc(Cl)cc3F)O4)CC2)n(C[C@@H]2CCO2)c1C12CC(C(=O)O)(C1)C2 [Compound C-23a, 3-(2-((4-((S)-2-(4-chloro-2-fluorophenyl)-2-methylbenzo[d][1,3]dioxol-4-yl)piperidin-1-yl)methyl)-4-methyl-1-(((S)-oxetan-2-yl)methyl)-1H-imidazol-5-yl)bicyclo[1.1.1]pentane-1-carboxylic acid]	107%	1.2 nM	–
C[C@]1(c2ccc(Cl)cc2F)Oc2cccc(C3CCN(Cc4nc(-c5nnn[nH]5)c(C(F)(F)F)n4C[C@@H]4CCO4)CC3)c2O1 [Compound C-25, 4-((S)-2-(4-chloro-2-fluorophenyl)-2-methylbenzo[d][1,3]dioxol-4-yl)-1-((1-(((S)-oxetan-2-yl)methyl)-4-(1H-tetrazol-5-yl)-5-(trifluoromethyl)-1H-imidazol-2-yl)methyl)piperidine]	110%	8.63 nM	–
CC(Cc1cnc(CN2CCC(c3cccc4c3O[C@@](C)(c3ccc(Cl)cc3F)O4)CC2)n1C[C@@H]1CCO1)C(=O)O (single isomer, unassigned) [Compound C-17a]	104%	1.2 nM	–
CCc1nc(CN2CCC(c3cccc4c3O[C@@](C)(c3ccc(Cl)cc3F)O4)CC2)n(C[C@@H]2CCO2)c1C(=O)O [Compound C-27, 2-((4-((S)-2-(4-chloro-2-fluorophenyl)-2-methylbenzo[d][1,3]dioxol-4-yl)piperidin-1-yl)methyl)-4-ethyl-1-(((S)-oxetan-2-yl)methyl)-1H-imidazole-5-carboxylic acid]	113%	2.96 nM	–
Cc1nc(CN2CCC(c3cccc4c3O[C@@](C)(c3ccc(Cl)cc3F)O4)CC2)n(C[C@@H]2CCO2)c1C(=O)O [Compound 3]	–	–	BAV ([2]; male C57BL/6 mice, 3 mg/kg oral dose vs 1 mg/kg i.v.): 50.1 ± 19.4%; AUC(0-inf) [2, 4]: 2.79 ± 1.35 µM·h; Vd [2, 4]: 0.903 ± 0.282 L/kg; clearance [2, 4]: 12.3 ± 4.78 mL/min/kg; half-life [2, 4]: 1.28 ± 0.223 h; AUC(0-inf) [2, 5]: 3.74 ± 0.641 µM·h; Cmax [2, 5]: 1470 ± 354 nM; Tmax [2, 5]: 0.667 ± 0.289 h; half-life [2, 5]: 1.84 ± 0.8 h
CC(Cc1cnc(CN2CCC(c3cccc4c3O[C@@](C)(c3ccc(Cl)cc3F)O4)CC2)n1C[C@@H]1CCO1)C(=O)O (single isomer, unassigned) [Compound C-17b]	–	1.2 nM	Emax mean [1, 3]: 106%
Cc1nc(CN2CCC(c3cccc4c3O[C@@](C)(c3ccc(Cl)cc3F)O4)CC2)n(C[C@@H]2CCO2)c1C1CC1C(=O)O (stereo partly drawn) [Compound C-9]	109%	0.418 nM	–
